These results are taken from US7723020B2, “Use of azetidinone compounds” (Schering Corporation, priority 1999, dated 2010).

In experiment [1] the target is T1, Scavenger receptor, class B, type I (SR-BI) (Rattus norvegicus, UniProt P97943).
T1 construct: expressed in transfected cells; host or cells: mouse cell line BW5147, infected with pMX retrovirus packaged in BOSC23
T1 sequence (P97943 1-509): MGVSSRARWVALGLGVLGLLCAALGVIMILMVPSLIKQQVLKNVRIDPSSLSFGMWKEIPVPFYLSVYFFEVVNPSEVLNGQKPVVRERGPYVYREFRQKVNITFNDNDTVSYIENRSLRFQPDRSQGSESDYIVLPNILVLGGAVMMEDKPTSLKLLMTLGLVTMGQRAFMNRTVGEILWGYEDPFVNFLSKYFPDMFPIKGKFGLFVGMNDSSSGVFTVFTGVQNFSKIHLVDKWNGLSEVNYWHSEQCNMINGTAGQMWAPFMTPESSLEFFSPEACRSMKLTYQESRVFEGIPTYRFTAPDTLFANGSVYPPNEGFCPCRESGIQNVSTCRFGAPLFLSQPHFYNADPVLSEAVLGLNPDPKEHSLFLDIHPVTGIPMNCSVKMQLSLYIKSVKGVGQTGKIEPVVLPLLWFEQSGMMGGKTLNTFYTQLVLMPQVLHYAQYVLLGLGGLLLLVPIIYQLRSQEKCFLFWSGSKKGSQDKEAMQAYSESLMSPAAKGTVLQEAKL
Kind of experiment: Expression cloning of rat intestinal epithelial cDNA library in BW5147 cells, stained with fluorescent compound, FACS. The format is cell-based. Conditions: two clones from two independent cDNA expression libraries, FACS-positive BW5147 cells. The text has this:
The small intestine was removed from male CRL: CD BR rats. Intestinal epithelial cells were isolated by the method of Weiser (Weiser, M., 1973, JBC 248, 2536-2541) and the mRNA extracted. Poly A mRNA was purified and double stranded cDNA synthesized. Adapter linkers were ligated followed by size selection (>2 Kb) of the cDNA. The selected fraction of cDNA was ligated into the retroviral expression plasmid pMX, subsequently transformed into bacteria and grown on selective agar at a clonal density of −30,000/plate. Each pool of bacterial clones was collected and plasmid DNA prepared.
Individual pools of cDNA library were transformed into the retroviral packaging cell line BOSC23 and the resulting viral particles, containing the cDNA library, were used to infect the mouse cell line BW5147. Following infection BW5147 cells were stained with compound 1C and analyzed by fluorescent activated cell sorting (FACS). Positive staining cells (−01%) were recovered and re-cultured. The process of recovering positive staining cells was repeated after expansion of the cell population in culture and following the second round of FACS analysis individual cells were isolated by limiting dilution.
Individual clonal populations of cells were subjected to PCR using retroviral vector specific oligonucleotide primers designed to flank the multiple cloning site in which the cDNA library was cloned. […]

Experiment [2] deals with cholesterol absorption. Kind of experiment: Acute in vivo cholesterol absorption model: inhibition of 14C-cholesterol absorption into plasma, intestinally cannulated rats. More on the design: species or system Male Sprague-Dawley rats. Conditions: rat, relative to bile vehicle control. The procedure:
Male Sprague-Dawley rats weighing 300-400 g were used. After an overnight fast, rats were anesthetized (Inactin, […] i.p.) for the duration of each study and were fitted with a cannula into the small intestine just below the pyloric valve. For the cannulation of the small intestine, a catheter (Surflo® i.v. catheter (18GX2″), Terumo Medical Corporation; Elkton, Md.) was inserted through the fundus of the stomach, advanced 1 cm beyond the pylorus, and ligated in place. Compounds were mixed in rat bile and delivered by bolus injection (1 mL) via the intestinal catheter into the small intestine.
One hour after the bile doses were delivered, three mL of an emulsion consisting of 2.23 mg/mL L-phosphatidylcholine and 11.8 mg/mL triolein in 19 mM sodium taurocholate (Sigma; St. Louis, Mo.) buffer (pH 6.4) containing 3 mg cholesterol and 1 mCi ^14C-cholesterol (NEN; Boston, Mass.) was delivered to each rat as a bolus via the intestinal cannula. Ninety minutes after the cholesterol emulsion was delivered, the rats were euthanized. Blood was collected and plasma was separated by centrifugation at 2000 rpm for 15 min at 4° C. Triplicate aliquots of plasma were analyzed ^14C radioactivity and inhibition of cholesterol absorption relative to bile vehicle control rats was determined.

With “[1-O-[4-[1-[4-[3-[[3-[2-[(3,5-DIMETHYL-1H-PYRROL-2-YL-.KAPPA.N)METHYLENE]-2H-PYRROL-5-YL-.KAPPA.N]-1-OXOPROPYL]AMINO]-1-PROPYNYL]PHENYL]-3(R)-[3(S)-HYDROXY-3-(4-FLUOROPHENYL)PROPYL]-2-OXO-4(S)-AZETIDINYL]PHENYL]-BETA-D-GLUCURONATO]DIFLUOROBORATE, HYDROGEN [IC]”, the “cellular receptor identified by expression cloning with the fluorescent compound” value in experiment [1] is reported as “identified as the cellular receptor”. Also, the “% Inhibition of [14C]-Cholesterol Absorption into Plasma” value was 58% in experiment [2] (dose 30 μg/kg in rat bile via intestinal catheter) and 80% in experiment [2] (dose 100 μg/kg in rat bile via intestinal catheter).
With `O=C(CCCCCNC(=O)c1ccc(-c2c3ccc(=O)cc-3oc3cc(O)ccc23)c(C(=O)O)c1)NCC#Cc1ccc(N2C(=O)[C@H](CC[C@H](O)c3ccc(F)cc3)[C@H]2c2ccc(O[C@@H]3O[C@H](C(=O)O)[C@@H](O)[C@H](O)[C@H]3O)cc2)cc1` [IB], the “% Inhibition of [14C]-Cholesterol Absorption into Plasma” value was found to be 79% in experiment [2] (dose 56 μg/kg in rat bile via intestinal catheter) and 88% in experiment [2] (dose 186 μg/kg in rat bile via intestinal catheter).
